Results on 15 compounds are retold here after patent US6943194B1, “Synthesis of phenstatin and prodrugs thereof” (Arizona Board of Regents, acting for and on behalf of …, priority 1998, dated 2005).

Where two headings read alike, the source gives them in different places.

One series concerns tubulin. Kind of series: Inhibition of [3H]colchicine binding to tubulin. Also noted: species or system bovine. Particulars: for Inhibition of colchicine binding % inhibition: 1.0 μM tubulin, 5.0 μM [3H]colchicine, 5.0 μM inhibitor, 10 min at 37° C. The protocol: Reaction mixtures contained 0.1 mg/mL (1.0 μM) tubulin, 5.0 μM [3H]colchicine, and 5.0 μM inhibitor and were incubated for 10 min at 37° C.

Series [1] concerns NCI 60 Cell-Line Human Tumor Screen. Put plainly: NCI 60 cell-line human tumor screen. The series is classed as cell-based. Conditions: read-out: Mean Panel GI50 (±S.D). An excerpt: (§1) Compounds 3b, 3d, 1d, and 4a-f were comparatively evaluated in the NCI 60 cell-line human tumor screen (Boyd, Status of the NCI preclinical antitumor drug discovery screen. Implications for selection of new agents for clinical trial, CANCER: Principles and Practices of Oncology Updates, DeVita, et al. (Eds.), Lippincott: Philadelphia, 1989; Vol. 10, No. 3, pp. 1-12; Boyd, The Future of New Drug Development. Section I. Introduction to Cancer Therapy, Current Therapy in Oncology, Niederhuber, (Ed.), B. C. Decker, Inc.: Philadelphia, 1993; pp. 11-22; Boyd, et al., Data display and analysis strategies from NCI disease-oriented in vitro antitumor drug screen. In Cytotoxic Anticancer Drugs: Models and Concepts for Drug Discovery and Development, Valeriote, et al. (Eds.), Kluwer Academic Publishers: Amsterdam, 1992; pp. 11-34; Stinson, et al., Morphological and Immunocytochemical Characteristics of Human Tumor Cell Lines for Use in a Disease-Oriented Anticancer Drug Screen, Anticancer Res. 1992, 12,-1035-1054; Boyd, et al., Some Practical Considerations and Applications of the NCI in vitro Drug Discovery Screen, Drug Dev. Res. 1995, 34, 91-109).

The next series concerns bovine brain tubulin. Kind of series: Inhibition of tubulin polymerization. The series is classed as biochemical. Conditions: for IC50: 10 μM tubulin, extent of assembly after 20 min at 30° C., read-out: Inhibition of tubulin polymerization IC50, μM ± SD; for activity against tubulin / in inhibiting assembly (in words): purified tubulin. The protocol:
Electrophoretically homogeneous bovine brain tubulin was purified from bovine brain as described previously (Hamel, et al., Separation of active tubulin and microtubule-associated proteins by ultracentrifugation and isolation of a component causing the formation of microtubule bundles, Biochemistry 1984, 23, 4173-4184). Reaction mixtures (0.24 mL during preincubation, 0.25 mL during incubation, with all concentrations referring to the final volume) contained 0.8 M monosodium glutamate (taken from 2.0 M stock solution adjusted to pH 6.6 with Hcl), 1.0 mg/mL (10 μM) tubulin, 4% (v/v) dimethyl sulfoxide, and varying concentrations of drug. Samples were incubated for 15 min at 30° C. and chilled on ice. GTP, required for polymerization, was added in 10 μL to a final concentration of 0.4 mM. Samples were transferred to cuvettes held at 0° C. by electronic temperature controllers in GILFORD model 250 recording spectrophotometers. Baselines were established, and the reaction was initiated by a jump (approximately 1 min) to 30° C. Extent of assembly after 20 min was the parameter used to determine IC50 values. […] In most experiments, four spectrophotometers were used, with two control reaction mixtures.

In the next series the test system is CNS U251. Put plainly: Human cancer cell line inhibition, CNS U251. The series is classed as cell-based. Conditions: U-251.
Source text: as §1

The next series deals with pharynx FADU. Kind of series: Human cancer cell line inhibition, pharynx FADU. The series is classed as cell-based.
Source text: as §1

In the next series the test system is prostate DU-145. Kind of series: Human cancer cell line inhibition, prostate DU-145. The series is classed as cell-based.
Source text: as §1

Series [2] has as its system P388 Lymphocytic Leukemia Cell Line. Put plainly: Murine P388 lymphocytic leukemia cell line growth inhibition. The series is classed as cell-based.
Another series relates to OVCAR-3. Kind of series: Human cancer cell growth inhibition, ovarian OVCAR-3. The series is classed as cell-based.
Another series concerns SF-295. Kind of series: Human cancer cell growth inhibition, CNS SF-295. The series is classed as cell-based.
For a further series, the system named is A498. Kind of series: Human cancer cell growth inhibition, renal A498. The series is classed as cell-based.
Another series has as its system NCI-H460. Kind of series: Human cancer cell growth inhibition, lung-NSC NCI-H460. The series is classed as cell-based.
For the next series, the system named is KM20L2. Kind of series: Human cancer cell growth inhibition, colon KM20L2. The series is classed as cell-based.
The next series deals with SK-MEL-5. Put plainly: Human cancer cell growth inhibition, melanoma SK-MEL-5. The series is classed as cell-based.
Series [3] in a line: Solubility in distilled water. The series is classed as physicochemical. Particulars: distilled water at 25° C. The protocol: The deprotected phosphate (0.44 g, 1.10 mmol) was dissolved in anhydrous methanol (15 mL) and sodium methoxide ([…], 2.20 mmol) was added at room temperature. The cloudy solution was stirred for 20 hours and the reaction mixture was concentrated to a white solid that was washed with 2-propanol and recrystallized (3×) from water-acetone. The phenstatin prodrug (3d, 0.38g, 78% yield) was collected by filtration and found to give; LRFAB m/z 443.02 (M+H+), calculated 443.048, EIMS m/z (peak height) 318 (100%, M+—PO3Na2+H), 303 (12%), 195 (20%), 151 (23%); ^1H-NMR (D2O) δH 7.644 (1H, t, J2/61.8 Hz, H-2), 7.366 (1H, dd, J6/2 1.8 Hz, J6/58.5 Hz, H-6), 7.006 (1H, d, J5/6 8.5 Hz, H-5), 6.933 (2H, s, H-2′, 6′), 3.844 (3H, s, 4′-OCH3), 3.748 (6H, s, 3′, 5′-OCH3) 3.734 (3H, s, 4OCH3); ^13C-NMR (D2O, reference to CDCl3) δC 193.5 (C═O), 151.1; and ^31P-NMR (D2O, decoupled, […]) δP −1.965.

The mark [4] stands for this setting: Homo sapiens, mean over NCI 60 cell-line panel, tested in triplicate.
The mark [5] stands for this setting: mean over NCI 60 cell-line panel, tested in triplicate.

Regarding `COc1ccc(/C=C\c2cc(OC)c(OC)c(OC)c2)cc1O` [Compound 1b, combretastatin A-4, reference compound], the “Inhibition of colchicine binding % inhibition” value in the series with tubulin is listed as 97%.

Compound `COc1cc(C(=O)c2cc(C)cc(C)c2)cc(OC)c1OC` [Compound 4b, 3,4,5-trimethoxy-3′,5′-dimethylbenzophenone] gave a melting point of 104 to 105 °C. Further, the GI50 in series [1] (setting [4]) is 3.48 µM. Besides, the IC50 in the series with bovine brain tubulin was 11 ± 2 µM. The “further fold drop in activity against tubulin” value with bovine brain tubulin (relative to 4d) is reported as 3 fold. In the series on tubulin, the “Inhibition of colchicine binding % inhibition” value stood at 7%.

Regarding `COc1ccc(CCc2cc(OC)c(OC)c(OC)c2)cc1O` [Compound 8a, reference compound], the IC50 with bovine brain tubulin worked out at 2.1 ± 0.3 µM. Moreover, the “Inhibition of colchicine binding % inhibition” value in the series with tubulin worked out at 77%.

`COc1ccc(C(=O)c2cc(OC)c(OC)c(OC)c2)cc1OC(C)=O` [Compound 3e, Phenstatin Acetate]: the melting point lay within 164 to 165 °C. For the same compound, in the series on CNS U251, growth was halved (GI50) at 0.0039 mg/L. Also, in the series on pharynx FADU, the G50 came to 0.0055 µg/mL. For the same compound, the GI50 in the series on prostate DU-145 stood at 0.0029 mg/L. The IC50 in the series on bovine brain tubulin is 3.5 ± 0.5 µM. For the same compound, the “Inhibition of colchicine binding % inhibition” value with tubulin was determined as 71%.

As for `COc1ccc(C(=O)c2cc(OC)c(OC)c(OC)c2)cc1OC` [Compound 4c, 3,3′,4,4′,5-pentamethoxybenzophenone], the GI50 in series [1] (setting [4]) turned out to be 5.11 µM. Moreover, the IC50 with bovine brain tubulin came out at 15 ± 2 µM. In addition, the “Inhibition of colchicine binding % inhibition” value in the series with tubulin came out at 1%.

In the case of `COc1ccc(CCc2cc(OC)c(OC)c(OC)c2)cc1` [Compound 8b, reference compound], the IC50 with bovine brain tubulin turned out to be 3.2 ± 0.3 µM. Also, the “Inhibition of colchicine binding % inhibition” value with tubulin is reported as 54%.

`COc1cc(C(=O)c2ccc3c(c2)OCO3)cc(OC)c1OC` [Compound 4a, 3,4,5-trimethoxy-3′,4′-methylenedioxybenzophenone] showed a melting point of 124 to 125 °C. For the same compound, in series [1] (setting [4]), the GI50 amounted to 2.7 µM. Further, in the series on bovine brain tubulin, the half-inhibitory concentration (IC50) was 15 ± 2 µM and the “activity against tubulin / in inhibiting assembly (in words)” value is given as “only weak activity”. Further, in the series on tubulin, the “Inhibition of colchicine binding % inhibition” value is recorded as 0%.

`COc1ccc(/C=C\c2cc(OC)c(OC)c(OC)c2)cc1OP(=O)([O-])[O-].[Na+].[Na+]` [Compound 1d, combretastatin A4 sodium phosphate, reference compound]: the 50% growth inhibitory concentration (GI50) in series [1] (setting [5]) was 0.0128 µM; in series [2], 0.0004 mg/L; in the series with OVCAR-3 it was 0.023 mg/L; in the series with SF-295, 0.036 mg/L; in the series on A498, 0.041 mg/L; in the series with NCI-H460, 0.029 mg/L. Besides, the results for the GI50 in the series on KM20L2 and in the series with SK-MEL-5 were 0.34 mg/L and 0.041 mg/L, respectively. The IC50 with bovine brain tubulin is > 80 µM. Further, the “activity against tubulin / in inhibiting assembly (in words)” value in the series with bovine brain tubulin was “totally inactive”. Also, the “Inhibition of colchicine binding % inhibition” value in the series on tubulin was found to be 4%.

As to `COc1ccc(C=Cc2cc(OC)c(OC)c(OC)c2)cc1` [Compound 1e, reference compound], the IC50 in the series on bovine brain tubulin is 1.3 ± 0.2 µM. For the same compound, the “Inhibition of colchicine binding % inhibition” value in the series on tubulin amounted to 97%.

On to `COc1cc(OC)cc(C(=O)c2cc(OC)c(OC)c(OC)c2)c1` [Compound 4d, 3,3′,4,5,5′-pentamethoxybenzophenone], for which the melting point was 121 to 122 °C. Besides, the GI50 in series [1] (Homo sapiens) was 0.543 µM. The IC50 in the series on bovine brain tubulin was 3.6 ± 0.8 µM. Moreover, in the series with bovine brain tubulin (relative to phenstatin 3b), the “fold less potent than phenstatin in inhibiting tubulin polymerization” value was 3-4 fold. Besides, the “Inhibition of colchicine binding % inhibition” value in the series on tubulin was 58%.

`COc1cc(C(=O)c2cc(Cl)cc(Cl)c2)cc(OC)c1OC` [Compound 4e, 3,5-dichloro-3′,4′,5′-trimethoxybenzophenone] came in with a melting point of 131 to 132 °C. Also, the GI50 in series [1] (setting [4]) is 5.12 µM. In addition, the “activity against tubulin / in inhibiting assembly (in words)” value in the series with bovine brain tubulin is recorded as “almost inert”.

On to `COc1ccc(Cc2cc(OC)c(OC)c(OC)c2)cc1O` [Compound 7a, reference compound], for which the IC50 in the series on bovine brain tubulin is 3.3 ± 0.5 µM. Besides, the “Inhibition of colchicine binding % inhibition” value in the series with tubulin was 65%.

On to `COc1ccc(C(=O)c2cc(OC)c(OC)c(OC)c2)cc1OP(=O)([O-])[O-].[Na+].[Na+]` [Compound 3d, Disodium Phenstatin 3-O-phosphate], for which the 50% growth inhibitory concentration (GI50) in series [1] (setting [5]) was 0.0733 µM; in series [2], <0.001 mg/L; with OVCAR-3, 0.0025 mg/L; in the series with SF-295, 0.012 mg/L; in the series with A498, 0.05 mg/L; in the series with NCI-H460 it was 0.035 mg/L. The GI50 came out at 0.27 mg/L in the series on KM20L2 and 0.0047 mg/L in the series on SK-MEL-5. Further, the IC50 in the series with bovine brain tubulin was 21 ± 3 µM. Besides, the “activity against tubulin / in inhibiting assembly (in words)” value with bovine brain tubulin is given as “weak activity”. Further, in the series with tubulin, the “activity as an inhibitor of colchicine binding (in words)” value was “moderate activity”. Also, the “Inhibition of colchicine binding % inhibition” value in the series with tubulin is on record as 37%. For the same compound, the “activity relative to phenstatin in colchicine binding assay” value in the series on tubulin (relative to phenstatin 3b) is listed as “about 40%”. In series [3], this compound came in with a solubility of 30 mg/mL.

For the compound `COc1ccc(Cc2cc(OC)c(OC)c(OC)c2)cc1` [Compound 7b, reference compound], the IC50 with bovine brain tubulin turned out to be 4.4 ± 0.2 µM. The “Inhibition of colchicine binding % inhibition” value with tubulin is 56%.

`COc1cc(C(=O)c2cc(F)cc(F)c2)cc(OC)c1OC` [Compound 4f, 3,5-difluoro-3′,4′,5′-trimethoxybenzophenone] displayed a melting point of 121 to 123 °C. The GI50 in series [1] (Homo sapiens) amounted to 4.94 µM. In addition, in the series with bovine brain tubulin, the IC50 was determined as 39 ± 7 µM and the “activity against tubulin / in inhibiting assembly (in words)” value is given as “almost inert”. Besides, the “Inhibition of colchicine binding % inhibition” value with tubulin is reported as 0%.
